Reference: BindingDB's records for patent US10774052 (Celgene CAR LLC; Sanofi, 2020)

Target: Fibroblast growth factor receptor 4 (Homo sapiens, UniProt P22455)
Assay: Omnia Assay Protocol for Potency Assessment Against (method a)
Method: A solution of 1.4×ATP (AS001A) and 5× Tyr-Sox conjugated peptide substrate (KNZ3101) were prepared in 1× kinase reaction buffer consisting of 20 mM Tris, pH 7.5, 5 mM MgCl2, 1 mM EGTA, 5 mM β-glycerophosphate, 5% glycerol (10× stock, KB002A) and 0.2 mM DTT (DS001A). […] The serially diluted compounds were prepared on a Tecan EV0100. A second addition of 10 μl of Tyr-Sox FGFR4 substrate was added to each well and the kinase reactions were started with the addition of 35 μL of 1.4×ATP. The reactions were monitored every 71 seconds for 240 minutes at λex360/λem485 in a Synergy plate reader from BioTek (Winooski, Vt.).

Fibroblast growth factor receptor 4, sequence (P22455 whole entry): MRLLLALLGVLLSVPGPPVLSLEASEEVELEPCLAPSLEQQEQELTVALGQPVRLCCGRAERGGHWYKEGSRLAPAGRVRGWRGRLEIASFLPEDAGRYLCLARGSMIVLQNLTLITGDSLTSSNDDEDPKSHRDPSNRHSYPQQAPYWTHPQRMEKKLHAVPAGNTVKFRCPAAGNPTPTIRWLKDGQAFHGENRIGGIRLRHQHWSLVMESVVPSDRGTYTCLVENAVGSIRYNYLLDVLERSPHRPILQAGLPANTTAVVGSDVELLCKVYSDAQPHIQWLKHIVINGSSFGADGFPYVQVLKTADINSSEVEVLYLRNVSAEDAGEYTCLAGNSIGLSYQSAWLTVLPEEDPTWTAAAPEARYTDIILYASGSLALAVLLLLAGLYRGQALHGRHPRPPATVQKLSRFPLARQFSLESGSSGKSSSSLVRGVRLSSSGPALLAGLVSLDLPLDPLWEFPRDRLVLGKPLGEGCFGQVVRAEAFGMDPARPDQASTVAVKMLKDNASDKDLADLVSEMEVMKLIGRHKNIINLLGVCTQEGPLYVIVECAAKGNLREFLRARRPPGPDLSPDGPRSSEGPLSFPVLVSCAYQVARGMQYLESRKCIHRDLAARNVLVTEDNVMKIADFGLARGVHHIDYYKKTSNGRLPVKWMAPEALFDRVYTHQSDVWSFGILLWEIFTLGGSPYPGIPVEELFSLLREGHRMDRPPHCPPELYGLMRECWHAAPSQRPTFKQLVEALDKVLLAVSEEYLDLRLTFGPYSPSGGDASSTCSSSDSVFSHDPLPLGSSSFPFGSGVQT

C=CC(=O)Nc1cc(C2=CCN(CC)CC2)ccc1Nc1ncc2c(n1)N(CC)C(=O)N(c1cc(OC)cc(OC)c1)C2 [US10774052, Compound I-56]
IC50: < 100 nM
